Data: US20260297085A1, “1 H-PYRROLO[2,3-B]PYRIDIN-4-YL]-2-OXOPYRROLIDINE-3-CARBONITRILE DERIVATIVES AS TYROSINE KINASE 2 (TYK2) INHIBITORS FOR THE TREATMENT OF INFLAMMATORY DISEASES” (BIOGEN MA INC., priority 2023, published 2026)

How the values were obtained:
[1] = target: T1, human TYK2 kinase domain (JH1) (Homo sapiens, UniProt P29597); experiment: JH1 biochemical assay for TYK2 (ADP-Glo kinase assay, recombinant JH1 catalytic domain, JAK3-974 peptide, 10 μM ATP)
T1 construct: recombinantly generated catalytic kinase (also known as JH1) domain of human JAK1, JAK2, JAK3 and TYK2
T1 sequence (P29597 897-1176 limits assumed): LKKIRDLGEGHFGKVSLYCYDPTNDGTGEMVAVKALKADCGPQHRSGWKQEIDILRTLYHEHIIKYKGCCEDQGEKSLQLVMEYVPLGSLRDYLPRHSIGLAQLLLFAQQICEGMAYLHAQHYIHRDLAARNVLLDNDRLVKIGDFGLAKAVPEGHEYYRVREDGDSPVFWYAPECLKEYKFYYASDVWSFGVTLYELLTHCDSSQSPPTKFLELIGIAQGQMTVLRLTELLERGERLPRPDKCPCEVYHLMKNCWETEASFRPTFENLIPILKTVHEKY
Method in brief: (§1)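 Reactions ran 100 min with 50 μM substrate peptide (JAK3-342 for JAK1 at 4 nM enzyme; JAK3-974 for JAK2 0.2 nM, JAK3 0.3 nM, TYK2 2 nM), and ADP formed was read by ADP-Glo luminescence. Eleven-point 3-fold series from 10 or 1 μM; IC50 fitted by 4-parameter logistic model.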

[2] = target: T2, human JAK1 kinase domain (JH1) (Homo sapiens, UniProt P23458); experiment: JH1 biochemical assay for JAK1 (ADP-Glo kinase assay, recombinant JH1 catalytic domain, JAK3-342 peptide, 35 μM ATP)
T2 construct: recombinantly generated catalytic kinase (also known as JH1) domain of human JAK1, JAK2, JAK3 and TYK2
T2 sequence (P23458 875-1153 limits assumed): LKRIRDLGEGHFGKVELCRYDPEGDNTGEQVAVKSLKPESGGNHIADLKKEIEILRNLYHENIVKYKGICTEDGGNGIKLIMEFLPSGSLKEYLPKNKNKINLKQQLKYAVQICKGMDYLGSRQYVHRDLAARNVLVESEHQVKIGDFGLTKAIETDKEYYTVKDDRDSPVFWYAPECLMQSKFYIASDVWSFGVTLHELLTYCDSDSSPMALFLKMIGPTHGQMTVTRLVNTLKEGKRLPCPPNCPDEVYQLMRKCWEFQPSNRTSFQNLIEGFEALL
Method in brief: as §1

[3] = target: T3, human JAK2 kinase domain (JH1) (Homo sapiens, UniProt O60674); experiment: JH1 biochemical assay for JAK2 (ADP-Glo kinase assay, recombinant JH1 catalytic domain, JAK3-974 peptide, 15 μM ATP)
T3 construct: recombinantly generated catalytic kinase (also known as JH1) domain of human JAK1, JAK2, JAK3 and TYK2
T3 sequence (O60674 849-1124 limits assumed): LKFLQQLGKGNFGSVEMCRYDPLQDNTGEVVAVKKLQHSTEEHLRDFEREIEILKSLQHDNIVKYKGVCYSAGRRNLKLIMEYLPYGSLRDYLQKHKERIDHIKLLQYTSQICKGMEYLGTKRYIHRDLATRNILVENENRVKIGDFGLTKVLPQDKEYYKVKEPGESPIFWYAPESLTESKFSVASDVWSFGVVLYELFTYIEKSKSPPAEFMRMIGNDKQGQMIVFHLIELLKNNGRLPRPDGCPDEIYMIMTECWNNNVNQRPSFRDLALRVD
Method in brief: as §1

[4] = target: T4, human JAK3 kinase domain (JH1) (Homo sapiens, UniProt P52333); experiment: JH1 biochemical assay for JAK3 (ADP-Glo kinase assay, recombinant JH1 catalytic domain, JAK3-974 peptide, 4 μM ATP)
T4 construct: recombinantly generated catalytic kinase (also known as JH1) domain of human JAK1, JAK2, JAK3 and TYK2
T4 sequence (P52333 822-1111 limits assumed): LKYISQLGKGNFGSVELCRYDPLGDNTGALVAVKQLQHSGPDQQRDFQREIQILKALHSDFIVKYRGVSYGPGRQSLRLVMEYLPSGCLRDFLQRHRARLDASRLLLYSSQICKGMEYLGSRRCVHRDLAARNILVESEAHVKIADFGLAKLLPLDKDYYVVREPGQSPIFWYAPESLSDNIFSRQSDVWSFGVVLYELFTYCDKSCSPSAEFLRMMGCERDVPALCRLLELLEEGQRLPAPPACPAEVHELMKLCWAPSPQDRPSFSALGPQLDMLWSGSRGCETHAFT
Method in brief: as §1

[5] = target: Tyk2 kinase activity on STAT4 in NK92 cells (Homo sapiens, UniProt P29597); experiment: pSTAT4 cell assay (MSD; NK92 cells, 30 ng/mL IL2 stimulation); type: cell-based; conditions: 30 ng/mL IL2, 15 minutes
Tyk2 kinase activity on STAT4 in NK92 cells, sequence (P29597 whole entry): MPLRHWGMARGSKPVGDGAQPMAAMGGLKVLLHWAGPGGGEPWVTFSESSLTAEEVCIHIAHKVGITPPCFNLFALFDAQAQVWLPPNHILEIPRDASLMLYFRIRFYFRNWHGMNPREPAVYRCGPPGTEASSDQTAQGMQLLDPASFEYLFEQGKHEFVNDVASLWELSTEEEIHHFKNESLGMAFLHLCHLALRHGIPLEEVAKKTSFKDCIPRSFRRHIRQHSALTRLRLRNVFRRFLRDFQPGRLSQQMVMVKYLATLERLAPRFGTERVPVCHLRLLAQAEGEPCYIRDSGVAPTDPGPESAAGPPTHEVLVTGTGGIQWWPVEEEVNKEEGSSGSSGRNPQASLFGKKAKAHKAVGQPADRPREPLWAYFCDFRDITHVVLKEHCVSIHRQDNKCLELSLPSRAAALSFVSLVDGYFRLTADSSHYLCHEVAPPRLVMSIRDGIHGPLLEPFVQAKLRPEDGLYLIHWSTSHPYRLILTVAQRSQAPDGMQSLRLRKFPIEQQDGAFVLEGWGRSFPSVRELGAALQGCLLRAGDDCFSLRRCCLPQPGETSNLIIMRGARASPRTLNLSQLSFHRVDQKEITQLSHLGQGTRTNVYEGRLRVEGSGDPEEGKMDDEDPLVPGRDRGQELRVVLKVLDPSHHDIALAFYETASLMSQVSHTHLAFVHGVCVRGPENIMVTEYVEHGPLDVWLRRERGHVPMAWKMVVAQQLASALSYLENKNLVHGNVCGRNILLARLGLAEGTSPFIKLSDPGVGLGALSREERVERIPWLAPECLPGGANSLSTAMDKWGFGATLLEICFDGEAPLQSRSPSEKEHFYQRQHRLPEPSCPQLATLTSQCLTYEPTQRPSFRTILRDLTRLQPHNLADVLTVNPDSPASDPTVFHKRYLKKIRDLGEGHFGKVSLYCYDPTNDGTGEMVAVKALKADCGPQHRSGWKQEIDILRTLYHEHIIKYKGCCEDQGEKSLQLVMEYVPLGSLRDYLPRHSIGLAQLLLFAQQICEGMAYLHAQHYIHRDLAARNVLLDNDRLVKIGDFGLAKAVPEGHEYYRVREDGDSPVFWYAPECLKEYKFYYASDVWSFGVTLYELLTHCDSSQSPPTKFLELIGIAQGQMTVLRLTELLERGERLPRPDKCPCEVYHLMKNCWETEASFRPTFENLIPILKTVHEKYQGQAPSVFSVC
Method in brief: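 Serum-starved NK92 cells, which natively express Tyk2 and STAT4, were pretreated for 1 h with a 10-point 4-fold dilution series from 10 μM. They were then stimulated with 30 ng/mL IL2 for 15 min. Phospho-STAT in lysates was quantified by MSD with anti-STAT4 antibodies, and IC50 was obtained from 4-parameter logistic fits.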

[6] = target: JAK2 kinase activity on STAT5 in TF1 cells (Homo sapiens, UniProt O60674); experiment: pSTAT5 cell assay (MSD; TF1 cells, 30 ng/mL IL-3 stimulation); type: cell-based; conditions: 30 ng/mL IL-3, 15 minutes
JAK2 kinase activity on STAT5 in TF1 cells, sequence (O60674 whole entry): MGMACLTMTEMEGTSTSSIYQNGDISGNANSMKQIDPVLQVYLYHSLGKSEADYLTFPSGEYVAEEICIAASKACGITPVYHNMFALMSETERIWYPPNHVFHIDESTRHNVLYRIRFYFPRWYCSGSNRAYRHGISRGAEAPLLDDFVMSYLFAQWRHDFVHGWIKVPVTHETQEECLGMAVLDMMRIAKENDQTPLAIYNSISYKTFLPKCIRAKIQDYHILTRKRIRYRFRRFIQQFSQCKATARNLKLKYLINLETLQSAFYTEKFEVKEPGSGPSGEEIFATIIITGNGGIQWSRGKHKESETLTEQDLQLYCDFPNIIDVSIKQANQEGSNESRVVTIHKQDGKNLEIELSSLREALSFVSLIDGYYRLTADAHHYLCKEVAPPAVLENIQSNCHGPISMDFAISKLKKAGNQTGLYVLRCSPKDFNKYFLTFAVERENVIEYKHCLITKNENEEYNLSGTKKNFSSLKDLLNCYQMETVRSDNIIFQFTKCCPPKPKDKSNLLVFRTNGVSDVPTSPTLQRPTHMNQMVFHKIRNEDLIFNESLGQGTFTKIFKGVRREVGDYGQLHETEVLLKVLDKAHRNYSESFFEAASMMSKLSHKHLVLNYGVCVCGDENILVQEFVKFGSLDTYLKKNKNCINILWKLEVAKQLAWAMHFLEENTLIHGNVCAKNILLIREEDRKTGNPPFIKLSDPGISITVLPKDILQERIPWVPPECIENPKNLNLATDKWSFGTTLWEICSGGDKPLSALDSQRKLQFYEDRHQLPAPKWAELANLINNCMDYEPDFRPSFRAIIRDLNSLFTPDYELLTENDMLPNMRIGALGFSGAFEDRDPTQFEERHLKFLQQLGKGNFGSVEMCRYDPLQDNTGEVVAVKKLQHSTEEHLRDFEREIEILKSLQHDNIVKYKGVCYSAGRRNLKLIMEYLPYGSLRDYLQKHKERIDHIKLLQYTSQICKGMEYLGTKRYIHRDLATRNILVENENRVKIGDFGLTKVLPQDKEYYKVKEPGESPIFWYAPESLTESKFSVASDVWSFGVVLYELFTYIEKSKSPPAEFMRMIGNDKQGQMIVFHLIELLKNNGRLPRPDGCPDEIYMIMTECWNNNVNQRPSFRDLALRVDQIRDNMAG
Method in brief: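 Serum-starved TF1 cells with native JAK2/STAT5 were pretreated 1 h with compound (10-point four-fold dilutions from 10 μM), then stimulated 15 min with 30 ng/mL IL-3. pSTAT5 in lysates quantified by MSD immunoassay; normalized percent activity fitted to a 4-parameter logistic curve for IC50.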

[7] = target: JAK1 kinase activity on STAT3 in TF1 cells (Homo sapiens, UniProt P23458); experiment: pSTAT3 cell assay (MSD; TF1 cells, 30 ng/mL IL-6 stimulation); type: cell-based; conditions: 30 ng/mL IL-6, 15 minutes
JAK1 kinase activity on STAT3 in TF1 cells, sequence (P23458 whole entry): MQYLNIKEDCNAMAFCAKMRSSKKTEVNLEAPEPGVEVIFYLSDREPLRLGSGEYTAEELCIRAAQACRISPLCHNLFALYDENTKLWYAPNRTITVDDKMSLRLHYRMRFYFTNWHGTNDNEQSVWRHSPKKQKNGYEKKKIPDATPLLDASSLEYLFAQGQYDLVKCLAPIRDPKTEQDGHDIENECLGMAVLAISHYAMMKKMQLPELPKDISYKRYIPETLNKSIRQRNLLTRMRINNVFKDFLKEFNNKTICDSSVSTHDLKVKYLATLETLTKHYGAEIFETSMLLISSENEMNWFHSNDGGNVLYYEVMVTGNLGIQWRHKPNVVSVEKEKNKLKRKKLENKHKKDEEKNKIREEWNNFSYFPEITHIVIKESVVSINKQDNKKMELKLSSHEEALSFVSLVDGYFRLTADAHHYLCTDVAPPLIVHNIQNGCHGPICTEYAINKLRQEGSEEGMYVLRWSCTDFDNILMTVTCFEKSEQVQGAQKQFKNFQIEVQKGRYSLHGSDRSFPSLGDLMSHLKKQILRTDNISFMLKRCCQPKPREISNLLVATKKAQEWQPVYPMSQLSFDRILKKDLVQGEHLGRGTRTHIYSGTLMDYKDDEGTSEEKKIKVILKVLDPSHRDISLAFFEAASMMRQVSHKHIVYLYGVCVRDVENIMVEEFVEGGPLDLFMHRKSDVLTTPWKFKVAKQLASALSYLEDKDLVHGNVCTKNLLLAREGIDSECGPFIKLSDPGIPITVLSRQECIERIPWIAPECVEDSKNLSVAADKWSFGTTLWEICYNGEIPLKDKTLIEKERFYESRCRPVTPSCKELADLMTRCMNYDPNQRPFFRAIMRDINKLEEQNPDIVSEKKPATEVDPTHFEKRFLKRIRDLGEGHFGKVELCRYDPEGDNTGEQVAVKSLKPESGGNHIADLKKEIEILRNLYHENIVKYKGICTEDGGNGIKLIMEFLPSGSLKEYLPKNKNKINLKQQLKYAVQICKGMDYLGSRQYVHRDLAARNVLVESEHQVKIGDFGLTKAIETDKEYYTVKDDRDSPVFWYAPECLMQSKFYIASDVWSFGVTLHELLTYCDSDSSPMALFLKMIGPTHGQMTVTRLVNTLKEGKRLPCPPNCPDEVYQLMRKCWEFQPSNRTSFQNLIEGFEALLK
Method in brief: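 Serum-starved TF1 cells were pretreated with compound for 1 hour (10-point, four-fold dilutions from 10 μM), then stimulated with IL-6 for 15 minutes. Lysates were assayed for pSTAT3 by MSD with anti-STAT3 antibodies; IC50 came from a 4-parameter logistic fit of normalized percent activity.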

| SMILES | IC50 ([1]; JH1 kinase domain, ADP-Glo) [µM] | IC50 ([2]; JH1 kinase domain, ADP-Glo) [µM] | IC50 ([3]; JH1 kinase domain, ADP-Glo) [µM] | IC50 ([4]; JH1 kinase domain, ADP-Glo) [µM] | IC50 [5] [µM] | IC50 [6] [µM] | IC50 [7] [µM] | IC50 ([1]; TYK2 JH1, ADP-Glo) [µM] | IC50 ([2]; JAK1 JH1, ADP-Glo) [µM] | IC50 ([3]; JAK2 JH1, ADP-Glo) [µM] | IC50 ([4]; JAK3 JH1, ADP-Glo) [µM] |
| --- | --- | --- | --- | --- | --- | --- | --- | --- | --- | --- | --- |
| Cc1c(-c2cn3nccc3c(N3C[C@@H](C)[C@@](C#N)(C4CC4)C3=O)n2)cnn1C [Example 199, (3R,4S)-3-cyclopropyl-1-(6-(1,5-dimethyl-1H-pyrazol-4-yl)pyrazolo[1,5-a]pyrazin-4-yl)-4-methyl-2-oxopyrrolidine-3-carbonitrile] | 0.005 to 0.02 | < 0.1 | 0.1 to 1 | 0.1 to 1 | > 0.1 | 5 to 10 | 1 to 5 | – | – | – | – |
| C[C@@H]1CN(c2ccnn3cc(-c4ccc5c(cnn5C)c4)cc23)C(=O)[C@]1(C#N)C1CC1 [Example 55, (3R,4S)-3-cyclopropyl-4-methyl-1-(6-(1-methyl-1H-indazol-5-yl)pyrrolo[1,2-b]pyridazin-4-yl)-2-oxopyrrolidine-3-carbonitrile] | < 0.005 | < 0.1 | 0.1 to 1 | 0.1 to 1 | 0.005 to 0.02 | 1 to 5 | 0.1 to 1 | – | – | – | – |
| C[C@@H]1CN(c2ccnn3c(F)c(-c4cnn(C)c4)cc23)C(=O)[C@]1(C#N)C1CC1 [Example 28, (3R,4S)-3-cyclopropyl-1-(7-fluoro-6-(1-methyl-1H-pyrazol-4-yl)pyrrolo[1,2-b]pyridazin-4-yl)-4-methyl-2-oxopyrrolidine-3-carbonitrile] | 0.05 to 0.1 | 1 to 5 | 5 to 10 | > 10 | > 0.1 | > 10 | > 10 | – | – | – | – |
| C[C@@H]1CN(c2ccnn3cc(-c4cnn(C5(CC#N)CC5)c4)cc23)C(=O)[C@]1(C#N)C1CC1 [Example 323] | – | – | – | – | 0.05 to 0.1 | 1 to 5 | 1 to 5 | < 0.005 | < 0.1 | < 0.1 | < 0.1 |
| Cc1ccc(-c2cc3c(N4C[C@@H](C)[C@@](C#N)(C5CC5)C4=O)ccnn3c2)cn1 [Example 67, (3R,4S)-3-cyclopropyl-4-methyl-1-(6-(6-methylpyridin-3-yl)pyrrolo[1,2-b]pyridazin-4-yl)-2-oxopyrrolidine-3-carbonitrile] | 0.005 to 0.02 | 0.1 to 1 | 0.1 to 1 | 0.1 to 1 | > 0.1 | 5 to 10 | 1 to 5 | – | – | – | – |
